In ChEMBL document CHEMBL5465560, “Selectivity Literature for EUbOPEN Chemogenomic Library” (2024):

Legend:
[1] = molecular target: Tyrosine-protein kinase FRK (Homo sapiens) (UniProt P42685); experiment: Selectivity interaction (KinaseProfiler screening (Millipore)) EUB0000601a FRK; conditions: at 3 µM
[2] = tested on: Phosphatidylinositol 4,5-bisphosphate 3-kinase catalytic subunit alpha isoform (Homo sapiens), P42336 [E545K]; experiment: (§1) Selectivity interaction (Ambit KINOMEscan and KiNATiv profiling in Jurkat cells) EUB0000090b PIK3CA; assay type: cell-based; conditions: at 1 µM
Chain of Phosphatidylinositol 4,5-bisphosphate 3-kinase catalytic subunit alpha isoform (Homo sapiens), P42336 [E545K] (P42336 whole entry E545K, canonical isoform): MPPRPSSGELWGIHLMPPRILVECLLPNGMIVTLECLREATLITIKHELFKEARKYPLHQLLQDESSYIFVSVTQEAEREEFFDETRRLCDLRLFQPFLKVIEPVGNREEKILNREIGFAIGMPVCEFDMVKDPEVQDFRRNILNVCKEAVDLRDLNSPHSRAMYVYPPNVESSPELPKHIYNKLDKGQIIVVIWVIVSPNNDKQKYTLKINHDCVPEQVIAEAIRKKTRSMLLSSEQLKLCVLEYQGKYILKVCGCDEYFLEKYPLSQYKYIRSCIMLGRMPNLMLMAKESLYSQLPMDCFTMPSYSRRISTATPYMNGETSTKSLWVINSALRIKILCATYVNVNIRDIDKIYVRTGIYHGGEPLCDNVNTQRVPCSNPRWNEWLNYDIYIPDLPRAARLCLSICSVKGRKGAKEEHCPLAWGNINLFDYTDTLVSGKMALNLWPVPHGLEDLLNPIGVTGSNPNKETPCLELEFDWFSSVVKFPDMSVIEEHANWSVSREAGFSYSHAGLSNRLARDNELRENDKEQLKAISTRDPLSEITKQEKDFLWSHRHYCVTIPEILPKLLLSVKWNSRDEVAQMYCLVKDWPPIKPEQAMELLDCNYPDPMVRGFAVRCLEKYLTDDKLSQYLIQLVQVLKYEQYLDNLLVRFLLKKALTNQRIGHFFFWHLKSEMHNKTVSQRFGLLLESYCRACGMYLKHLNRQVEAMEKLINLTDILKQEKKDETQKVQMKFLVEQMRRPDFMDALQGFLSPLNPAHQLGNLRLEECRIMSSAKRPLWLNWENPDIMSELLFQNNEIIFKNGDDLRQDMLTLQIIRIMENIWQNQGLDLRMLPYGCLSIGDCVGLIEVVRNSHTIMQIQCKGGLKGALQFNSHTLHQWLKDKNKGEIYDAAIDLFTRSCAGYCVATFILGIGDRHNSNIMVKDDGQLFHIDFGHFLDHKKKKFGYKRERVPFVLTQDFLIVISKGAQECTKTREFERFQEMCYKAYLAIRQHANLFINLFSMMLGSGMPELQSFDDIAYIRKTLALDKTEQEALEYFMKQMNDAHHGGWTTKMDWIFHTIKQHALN

[3] = tested on: Phosphatidylinositol 4,5-bisphosphate 3-kinase catalytic subunit alpha isoform (Homo sapiens), P42336 [Q546K]; experiment: as §1; assay type: cell-based; conditions: at 1 µM
[4] = tested on: Phosphatidylinositol 4,5-bisphosphate 3-kinase catalytic subunit alpha isoform (Homo sapiens), P42336 [M1043I]; experiment: as §1; assay type: cell-based; conditions: at 1 µM
[5] = tested on: Phosphatidylinositol 4,5-bisphosphate 3-kinase catalytic subunit alpha isoform (Homo sapiens), P42336 [H1047L]; experiment: as §1; assay type: cell-based; conditions: at 1 µM
[6] = molecular target: Phosphatidylinositol 4,5-bisphosphate 3-kinase catalytic subunit alpha isoform (Homo sapiens) (UniProt P42336); experiment: as §1; assay type: cell-based; conditions: at 1 µM
Chain of Phosphatidylinositol 4,5-bisphosphate 3-kinase catalytic subunit alpha isoform (Homo sapiens) (P42336 whole entry, canonical isoform): as the sequence (P42336 whole entry E545K, canonical isoform) above, with K545E counted along it

[7] = tested on: Phosphatidylinositol 4,5-bisphosphate 3-kinase catalytic subunit alpha isoform (Homo sapiens), P42336 [H1047Y]; experiment: as §1; assay type: cell-based; conditions: at 1 µM
[8] = tested on: Phosphatidylinositol 4,5-bisphosphate 3-kinase catalytic subunit alpha isoform (Homo sapiens), P42336 [E545A]; experiment: as §1; assay type: cell-based; conditions: at 1 µM
Chain of Phosphatidylinositol 4,5-bisphosphate 3-kinase catalytic subunit alpha isoform (Homo sapiens), P42336 [E545A] (P42336 whole entry E545A, canonical isoform): as the sequence (P42336 whole entry E545K, canonical isoform) above, with K545A counted along it

[9] = tested on: Phosphatidylinositol 4,5-bisphosphate 3-kinase catalytic subunit alpha isoform (Homo sapiens), P42336 [C420R]; experiment: as §1; assay type: cell-based; conditions: at 1 µM
[10] = tested on: Phosphatidylinositol 4,5-bisphosphate 3-kinase catalytic subunit alpha isoform (Homo sapiens), P42336 [I800L]; experiment: as §1; assay type: cell-based; conditions: at 1 µM
[11] = tested on: Phosphatidylinositol 4,5-bisphosphate 3-kinase catalytic subunit alpha isoform (Homo sapiens), P42336 [E542K]; experiment: as §1; assay type: cell-based; conditions: at 1 µM
Chain of Phosphatidylinositol 4,5-bisphosphate 3-kinase catalytic subunit alpha isoform (Homo sapiens), P42336 [E542K] (P42336 whole entry E542K, canonical isoform): as the sequence (P42336 whole entry E545K, canonical isoform) above, with E542K, K545E counted along it

[12] = molecular target: Mitogen-activated protein kinase 9 (Homo sapiens, UniProt P45984); experiment: Selectivity interaction (Kinase panel (DSF assay)) EUB0001559a MAPK9
[13] = molecular target: Serine/threonine-protein kinase Nek4 (Homo sapiens) (UniProt P51957); experiment: Selectivity interaction (KinomeScan (DiscoverX)) EUB0000655a NEK4; conditions: at 10 µM
[14] = molecular target: T1, Serine/threonine-protein kinase ICK (Homo sapiens) (UniProt Q9UPZ9); experiment: Selectivity interaction (KinomeScan (DiscoverX)) EUB0000595a ICK; conditions: at 10 µM
T1 sequence (whole entry): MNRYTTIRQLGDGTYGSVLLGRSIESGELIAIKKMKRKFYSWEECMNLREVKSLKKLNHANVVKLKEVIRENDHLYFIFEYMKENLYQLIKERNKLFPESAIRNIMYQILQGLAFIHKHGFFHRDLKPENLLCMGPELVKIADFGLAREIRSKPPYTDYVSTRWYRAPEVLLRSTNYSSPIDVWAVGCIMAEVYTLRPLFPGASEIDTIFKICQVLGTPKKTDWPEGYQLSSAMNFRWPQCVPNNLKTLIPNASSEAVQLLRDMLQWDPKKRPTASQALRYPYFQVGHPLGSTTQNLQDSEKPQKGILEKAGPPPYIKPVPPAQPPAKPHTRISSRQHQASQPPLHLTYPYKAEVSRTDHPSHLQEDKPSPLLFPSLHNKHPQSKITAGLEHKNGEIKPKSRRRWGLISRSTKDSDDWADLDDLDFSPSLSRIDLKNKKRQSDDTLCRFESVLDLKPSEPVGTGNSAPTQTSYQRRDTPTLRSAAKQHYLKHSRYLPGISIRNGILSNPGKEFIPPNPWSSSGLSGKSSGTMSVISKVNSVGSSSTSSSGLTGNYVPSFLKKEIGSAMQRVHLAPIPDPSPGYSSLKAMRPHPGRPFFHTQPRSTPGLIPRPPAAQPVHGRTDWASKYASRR

[15] = molecular target: T2, Serine/threonine-protein kinase Nek2 (Homo sapiens) (UniProt P51955); experiment: Selectivity interaction (KinomeScan (DiscoverX)) EUB0000092b NEK2; conditions: at 10 µM
T2 sequence (whole entry): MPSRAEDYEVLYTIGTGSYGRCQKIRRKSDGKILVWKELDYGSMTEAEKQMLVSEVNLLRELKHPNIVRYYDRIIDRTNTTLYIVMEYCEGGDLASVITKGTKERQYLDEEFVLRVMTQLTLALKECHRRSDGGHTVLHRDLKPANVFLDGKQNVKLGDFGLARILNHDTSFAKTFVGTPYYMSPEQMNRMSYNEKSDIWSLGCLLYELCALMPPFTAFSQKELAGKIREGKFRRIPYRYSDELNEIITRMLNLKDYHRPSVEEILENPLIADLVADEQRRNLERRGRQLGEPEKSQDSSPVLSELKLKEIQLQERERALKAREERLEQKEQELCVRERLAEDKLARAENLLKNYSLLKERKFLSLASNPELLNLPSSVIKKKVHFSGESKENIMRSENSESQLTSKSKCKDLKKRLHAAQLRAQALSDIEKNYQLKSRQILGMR

[16] = molecular target: Phosphorylase b kinase gamma catalytic chain, skeletal muscle/heart isoform (Homo sapiens) (UniProt Q16816); experiment: Selectivity interaction (Kinase panel (Z-LYTE Assay)) EUB0001632a PHKG1; conditions: at 10 µM
[17] = molecular target: T3, cAMP-dependent protein kinase catalytic subunit PRKX (Homo sapiens) (UniProt P51817); experiment: Selectivity interaction (KinomeScan (DiscoverX)) EUB0000695a PRKX; conditions: at 100 nM
T3 sequence (whole entry): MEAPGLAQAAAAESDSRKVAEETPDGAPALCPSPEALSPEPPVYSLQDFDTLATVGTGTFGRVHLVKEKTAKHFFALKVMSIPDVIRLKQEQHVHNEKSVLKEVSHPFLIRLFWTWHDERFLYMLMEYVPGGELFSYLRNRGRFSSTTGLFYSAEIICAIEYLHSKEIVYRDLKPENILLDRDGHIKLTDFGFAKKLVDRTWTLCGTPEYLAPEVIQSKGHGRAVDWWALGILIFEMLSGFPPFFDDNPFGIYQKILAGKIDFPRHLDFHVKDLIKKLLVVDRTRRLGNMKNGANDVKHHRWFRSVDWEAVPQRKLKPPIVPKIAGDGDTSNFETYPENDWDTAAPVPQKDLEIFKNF

Chain of Tyrosine-protein kinase FRK (Homo sapiens) (P42685 whole entry, canonical isoform): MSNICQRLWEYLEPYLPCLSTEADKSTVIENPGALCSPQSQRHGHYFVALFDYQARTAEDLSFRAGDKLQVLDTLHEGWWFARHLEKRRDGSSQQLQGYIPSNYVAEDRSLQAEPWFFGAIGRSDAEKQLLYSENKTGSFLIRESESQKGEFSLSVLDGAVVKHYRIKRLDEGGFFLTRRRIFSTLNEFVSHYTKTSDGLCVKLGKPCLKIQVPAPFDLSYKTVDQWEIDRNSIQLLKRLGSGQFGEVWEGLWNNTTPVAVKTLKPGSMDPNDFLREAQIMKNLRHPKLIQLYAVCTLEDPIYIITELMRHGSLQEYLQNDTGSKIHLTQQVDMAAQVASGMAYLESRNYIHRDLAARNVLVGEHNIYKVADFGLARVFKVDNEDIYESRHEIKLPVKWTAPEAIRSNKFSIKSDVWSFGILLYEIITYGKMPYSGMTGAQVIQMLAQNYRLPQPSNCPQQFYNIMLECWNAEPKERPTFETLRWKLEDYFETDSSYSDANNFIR

Work on `CCc1cc(Nc2nccc(-c3c(-c4ccc(OC)c(C(=O)Nc5c(F)cccc5F)c4)nc4ccccn34)n2)c(OC)cc1N1CCC(N2CCN(S(C)(=O)=O)CC2)CC1` yielded a % of inhibition [1] of 97%.
Compound `CN(C)C/C=C/C(=O)Nc1ccc(C(=O)N2CCCC(Nc3ncc(Cl)c(-c4c[nH]c5ccccc45)n3)C2)cc1` (configuration not stated) has a % of control [2] of 99%, a % of control [3] of 98% and a % of control [4] of 100%. It also gave a % of control [5] of 100%, a % of control [6] of 92% and a % of control [7] of 95%. For the same compound, the % of control [8] was 83%, the % of control [9] was 87% and the % of control [10] was 89%. It also gave a % of control [11] of 93%.
In the case of `CN(C(=O)c1cnn2cccnc12)c1cc2c(cc1N1CCOCC1)C(=O)N(C[C@@H](F)C(C)(C)O)C2`, the dTM [12] is reported as 0.5 K.
Compound `CN(C)CCOc1ccc(-c2nc(-c3ccncc3)c(-c3ccc4c(c3)CC/C4=N\O)[nH]2)cc1` has a % of control [13] of 100%.
`COCC(=O)NC/C=C/c1ccc2ncnc(Nc3ccc(Oc4ccc(C)nc4)c(C)c3)c2c1` [CP-724714] was tested, and the % of control [14] was 100%.
`CCC(=O)N1CCN(c2ccc(-n3c(=O)ccc4cnc5ccc(-c6cnc7ccccc7c6)cc5c43)cc2C(F)(F)F)CC1` showed a % of control [15] of 90%.
Work on `Cn1cc(-n2cnc3c(NCc4nc5cc(Cl)c(Cl)cc5[nH]4)nc(N4CCOCC4)nc32)cn1` yielded a % of control [16] of -6.26%.
Compound `Cc1cc(F)c(C(=O)Nc2cccc(-c3nncn3C(C)C)n2)cc1-n1cnc(C2CC2)c1` has a % of control [17] of 100%.
